pIC50: −log10 of the molar value. Counter-ions that a name gives are not always drawn. Like-named read-outs stand apart in the source and are kept apart here.

One series deals with human Factor Xa (Homo sapiens, UniProt P00742). Nature of the series: Test of oral administration: anti-FXa activity in the plasma. The format is in vivo, Wistar male rat. The conditions noted are these: rat, one hour after the oral administration of 30 mg/kg. The protocol: (§1) A sample was dissolved or suspended in a 0.5% (w/v) methyl cellulose solution and the resulting solution or suspension was orally administered (10 ml/kg) to a 8 to 11 week-old rat (Wistar male rat (Nippon SLC Co., Ltd.)) which had been fasted overnight. After administration of the sample, the blood to which 1/10 part by weight of 3.13% (w/v) sodium citrate had been added was collected from the cervical vein under anesthesia with halothane. The rat was awakened except during the blood collection. Feeding was re-started 6 hours after the blood collection. From each blood sample, the plasma was separated by centrifugal separation and anti-FXa activity in the blood and prothrombin time extending action were measured.
human Factor Xa, sequence (P00742 235-488 limits assumed): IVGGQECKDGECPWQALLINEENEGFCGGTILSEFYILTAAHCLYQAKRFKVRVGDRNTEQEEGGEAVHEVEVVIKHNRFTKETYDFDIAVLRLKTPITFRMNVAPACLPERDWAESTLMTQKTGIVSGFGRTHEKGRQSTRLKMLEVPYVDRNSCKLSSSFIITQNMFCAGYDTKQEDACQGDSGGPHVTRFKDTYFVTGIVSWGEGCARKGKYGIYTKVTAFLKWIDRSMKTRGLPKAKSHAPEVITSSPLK
human Factor Xa, sequence (P00742 41-179 partner limits assumed): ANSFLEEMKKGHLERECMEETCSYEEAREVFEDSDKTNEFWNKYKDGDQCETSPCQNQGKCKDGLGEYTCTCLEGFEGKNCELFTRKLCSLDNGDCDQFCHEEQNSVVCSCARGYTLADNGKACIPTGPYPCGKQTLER
In a 96-well plate, 5 μl of the plasma was poured in portions, followed by the addition of 55 μl of a 8:1:2 mixture of 100 mM tris.200 mM sodium chloride.0.2% BSA (pH 7.4) buffer, water and 0.1 U/ml human Factor Xa solution (dissolved in and diluted with a measuring buffer) and 40 μl of 750 μM S-2222. After stirring for 10 seconds in a plate mixer, an increase (mOD/min) of the absorbance at 405 nm was measured at room temperature. The inhibitory ratio was calculated as follows:
An inhibitory ratio (%)=(1−OD of sample÷OD of control on average relative to blood-collecting time of sample)×100

Series [1] concerns prothrombin time of the plasma. Nature of the series: Test of oral administration: coagulation extending action (prothrombin time). It is filed as in vivo, Wistar male rat. The conditions noted are these: rat, oral administration of 30 mg/kg. The protocol:
as §1
To 20 μl of the plasma, 40 μl of cynplastin (Organon Teknika/USA) was added and the coagulation time was measured. The ratio of the prothrombin time after the administration of the sample relative to the prothrombin time before the administration of the sample was designated as an index of the coagulation extending action.

A further series has as its target T1, human FXa (Homo sapiens, UniProt P00742).
T1 construct: purchased Cosmobio-ERL HFXa-1011
In words: Measurement of FXa inhibitory action (IC50). It is filed as biochemical. The conditions noted are these: for IC50: 0.05 U/ml human FXa, substrate S2222, absorbance at 405 nm, room temperature, read-out: Concentration (nM) of the sample at which 50% of Fxa activity is inhibited; for pIC50: same test as Tables 1-6, read-out: FXa 50% inhibitory concentrations. The protocol: Measurement of FXa Inhibitory Action (IC50)
From the below-described equation, an inhibitory ratio % of each sample was determined.
(§2) Inhibitory ratio (%)=(1−OD of sample÷OD of control)×100

The next series has as its target T2, human thrombin (Homo sapiens, UniProt P00734).
T2 construct: carries out limited proteolysis of prothrombin, thereby forming thrombin; purchased Sigma Chemical
In words: Measurement of thrombin inhibitory action (IC50). The conditions noted are these: for IC50: 4 U/ml human thrombin, substrate S2266, absorbance at 405 nm, room temperature, read-out: Concentration (nM) of the sample at which 50% of thrombin activity is inhibited. The format is biochemical. The protocol: Measurement of Thrombin Inhibitory Action (IC50)
In a 96-well microtiter plate, 10 μl of a sample solution, 40 μl of a 100 mM tris.200 mM sodium chloride 0.2% BSA (pH: 7.4) buffer and 10 μl of 4 U/ml human thrombin (Sigma Chemical, dissolved in and diluted with a measuring buffer) were poured in portions, followed by the addition of 40 μl of 500 μM S2266 (product of Chromogenix). An increase (mOD/min) in the absorbance at 405 nm was measured at room temperature. From the below-described equation, an inhibitory ratio % of each sample was determined. On a logarithmic probability paper, the final concentration of the sample and inhibitory ratio % were plotted along the abscissa and the ordinate, respectively, whereby a 50% inhibitory concentration (IC50) was found.
as §2

T1 sequence (P00742 235-488 limits assumed): as the sequence (P00742 235-488 limits assumed) above
T1 sequence (P00742 41-179 partner limits assumed): as the sequence (P00742 41-179 partner limits assumed) above

What is called melting point is the temperature of the solid-liquid transition. Consider `CN1Cc2ccc(C(=O)N3CCN(S(=O)(=O)c4cc5cc(Cl)ccc5[nH]4)CC3)cc2C1` (as salt: salt) [Example B-190, 1-[(5-Chloroindol-2-yl)sulfonyl]-4-[(2-methylisoindolin-5-yl)carbonyl]piperazine], for which the melting point is 175 to 180 °C (dec.).

On to `Cl.O=C(C1CC=C(c2ccncc2)CC1)N1CCN(S(=O)(=O)c2ccc3cc(Cl)ccc3c2)CC1` (racemic) [Example A-60, 1-[(6-Chloronaphthalen-2-yl)sulfonyl]-4-[[(1RS)-4-(pyridin-4-yl)-3-cyclohexene]carbonyl]piperazine hydrochloride], for which the “anti-FXa activity in the plasma” value at human Factor Xa is recorded as 70%. Besides, in series [1], the “extension of the prothrombin time (ratio after/before administration)” value worked out at 1.18 times.

With `C#Cc1ccc2[nH]c(S(=O)(=O)N3CCN(C(=O)c4ccc(-c5ccncc5)cc4)CC3)cc2c1` [Example A-103, 1-[(5-Ethynylindol-2-yl)sulfonyl]-4-[4-(pyridin-4-yl)benzoyl]piperazine], the values for the IC50 on human FXa and at human thrombin were 27 nM and 2220 nM, respectively.

`O=C(c1ncc(-c2ccncc2)cn1)N1CCN(S(=O)(=O)c2cc3cc(Cl)ccc3[nH]2)CC1` [Example A-105, 1-[(5-Chloroindol-2-yl)sulfonyl]-4-[[5-(pyridin-4-yl)pyrimidin-2-yl]carbonyl]piperazine]: the IC50 at human thrombin is 19000 nM.

As for `O=C(c1ccc(-c2cccc[n+]2[O-])cc1)N1CCN(S(=O)(=O)c2cc3cc(Cl)ccc3[nH]2)CC1` [Example A-109, 2-[4-[[4-[(5-Chloroindol-2-yl)sulfonyl]piperazin-1-yl]carbonyl]phenyl]pyridine N-oxide], the IC50 on human FXa amounted to 6.9 nM; at human thrombin, 1550 nM.

Take `O=C(c1ccc(-c2cccc[n+]2[O-])cc1)N1CCN(S(=O)(=O)c2cc3ccc(Cl)cc3s2)CC1` [Example A-117, 2-[4-[[4-[(6-Chlorobenzo[b]thien-2-yl)sulfonyl]piperazin-1-yl]carbonyl]phenyl]pyridine N-oxide]: the results for the IC50 at human FXa and on human thrombin were 10.5 nM and 4100 nM, respectively.

On to `O=C(c1ncc(-c2ccncc2)cn1)N1CCN(S(=O)(=O)c2ccc3cc(Cl)ccc3c2)CC1` [Example A-123, 1-[(6-Chloronaphthalen-2-yl)sulfonyl]-4-[[5-(pyridin-4-yl)pyrimidin-2-yl]carbonyl]piperazine], for which the values for the IC50 on human FXa and on human thrombin were 23 nM and 16000 nM, respectively.

Turning to `O=C(c1ncc(-c2ccncc2)cn1)N1CCN(S(=O)(=O)c2cc3ccc(Cl)cc3s2)CC1` [Example A-132, 1-[(6-Chlorobenzothiophen-2-yl)sulfonyl]-4-[[5-(pyridin-4-yl)pyrimidin-2-yl]carbonyl]piperazine], the IC50 was 5.6 nM on human FXa and more than 100000 nM on human thrombin.

Take `O=C(c1ncc(-c2cc[n+]([O-])cc2)cn1)N1CCN(S(=O)(=O)c2cc3ccc(Cl)cc3s2)CC1` [Example A-133, 4-[2-[[4-[(6-Chlorobenzo[b]thien-2-yl)sulfonyl]piperazin-1-yl]carbonyl]pyrimidin-5-yl]pyridine N-oxide]: the IC50 at human FXa turned out to be 10 nM; on human thrombin it was 7700 nM.

Regarding `O=C(c1ncc(-c2cc[n+]([O-])cc2)cn1)N1CCN(S(=O)(=O)c2cc3cc(Cl)ccc3[nH]2)CC1` [Example A-134, 4-[2-[[4-[(5-Chloroindol-2-yl)sulfonyl]piperazin-1-yl]carbonyl]pyrimidin-5-yl]pyridine N-oxide], the results for the IC50 at human FXa and on human thrombin were 4.6 nM and 10200 nM, respectively.

As for `O=C(c1cnc(-c2ccncc2)cn1)N1CCN(S(=O)(=O)c2ccc3cc(Cl)ccc3c2)CC1` [Example A-137, 1-[(6-Chloronaphthalen-2-yl)sulfonyl]-4-[[5-(pyridin-4-yl)pyrazin-2-yl]carbonyl]piperazine], the IC50 on human FXa is 60 nM; on human thrombin, 4100 nM.

As for `O=C(c1cnc(-c2ccncc2)cn1)N1CCN(S(=O)(=O)c2cc3cc(Cl)ccc3[nH]2)CC1` [Example A-138, 1-[(5-Chloroindol-2-yl)sulfonyl]-4-[[5-(pyridin-4-yl)pyrazin-2-yl]carbonyl]piperazine], the IC50 at human FXa was 5 nM; at human thrombin, 5900 nM.

For the compound `O=C(c1cnc(-c2cc[n+]([O-])cc2)cn1)N1CCN(S(=O)(=O)c2cc3cc(Cl)ccc3[nH]2)CC1` [Example A-140, 4-[5-[[4-[(5-Chloroindol-2-yl)sulfonyl]piperazin-1-yl]carbonyl]pyrazin-2-yl]pyridine N-oxide], the IC50 at human FXa worked out at 6.8 nM; on human thrombin it was 1370 nM.

Take `C#Cc1ccc2cc(S(=O)(=O)N3CCN(C(=O)c4ncc(-c5ccncc5)cn4)CC3)sc2c1` [Example A-216, 4-[[5-(Pyridin-4-yl)pyrimidin-2-yl]carbonyl]-1-[(6-ethynylbenzo[b]thien-2-yl)sulfonyl]piperazine]: the IC50 on human FXa is 15 nM; at human thrombin, more than 50000 nM.

With `O=C(CC1CN(S(=O)(=O)c2cc3ccc(Cl)cc3s2)CCN1C(=O)c1ncc(-c2cccc[n+]2[O-])cn1)NC1CC1` (stereo not shown) [Example A-293, 2-[2-[[4-[(6-Chlorobenzo[b]thien-2-yl)sulfonyl]-2-[(N-cyclopropylcarbamoyl)methyl]piperazin-1-yl]carbonyl]pyrimidin-5-yl]pyridine N-oxide], the IC50 at human FXa is 1.9 nM.

With `O=C(CC1CN(S(=O)(=O)c2cc3cc(Cl)ccc3[nH]2)CCN1C(=O)c1ncc(-c2cc[n+]([O-])cc2)s1)N1CCCC1` (stereo not shown) [Example A-298, 4-[2-[[4-[(5-Chloroidol-2-yl)sulfonyl]-2-[(pyrrolidin-1-yl)carbonylmethyl]piperazin-1-yl]carbonyl]thiazol-5-yl]pyridine N-oxide], the IC50 at human FXa came out at 0.7 nM.

As to `CN1CCc2nc(C(=O)N3CCN(S(=O)(=O)c4cc5cc(Cl)ccc5[nH]4)CC3)sc2C1` [Example B-54, hydrochloride], the pIC50 was 8.30 at human FXa and 5.98 at human thrombin (same test as Tables 7-8, read-out: thrombin 50% inhibitory concentration).

Turning to `C[n+]1ccc2nc(C(=O)N3CCN(S(=O)(=O)c4ccc5cc(Cl)ccc5c4)CC3)sc2c1` [Example B-61], on human FXa, the pIC50 is 7.52.

As for `CN1CCc2nc(C(=O)N3CCN(S(=O)(=O)c4ccc5cc(Cl)ccc5c4)CC3CC(=O)N3CCOCC3)sc2C1` (stereo not shown) [Example B-63, 4-[(6-Chloronaphthalen-2-yl)sulfonyl]-1-[(6-methyl-4,5,6,7-tetrahydrothiazolo[5,4-c]pyridin-2-yl)carbonyl]-2-[[(morpholin-4-yl)carbonyl]methyl]piperazine hydrochloride], on human FXa, the pIC50 is 7.90.

Regarding `CN1CCc2nc(C(=O)N3CCN(S(=O)(=O)c4cc5cc(Cl)ccc5[nH]4)CC3CC(=O)N3CCOCC3)sc2C1` (stereo not shown) [Example B-99, hydrochloride], the pIC50 at human FXa is 8.77.

With `O=C(c1ccc2c(c1)CNC2)N1CCN(S(=O)(=O)c2cc3cc(Cl)ccc3[nH]2)CC1` [Example B-189, 1-[(5-Chloroindol-2-yl)sulfonyl]-4-[(isoindolin-5-yl)carbonyl]piperazine], the melting point was 196 to 199 °C (dec.).

Source of the values: patent US6747023B1 (Daiichi Pharmaceutical Co., Ltd., priority 1998, dated 2004).
